# Test results: article PMC10786919, “Design-rules for stapled peptides with in vivo activity and their application to Mdm2/X antagonists” (Nature Communications, 2024)
# Read-outs that look alike come from different tables or passages of the source. Positions of bridges follow the written chain, without caps; N, C: chain ends. Non-standard residues stand in square brackets, D forms with d. Residues, ends and D or L forms follow the SMILES beside them. tBuAla = CC(C)(C)C[C@H](N)C(=O)O; R8 = C=CCCCCCC[C@@](C)(N)C(=O)O; R5 = C=CCCC[C@@](C)(N)C(=O)O; S5 = C=CCCC[C@](C)(N)C(=O)O; Ahx = NCCCCCC(=O)O
# Columns and labels:
# Assay type in all cases: cell-based
# [1] = tested on: p53 responsive β-lactamase reporter in HCT116 cells; experiment: cells; settings: read-out: p53 reporter assay EC50
# Procedure: HCT116 cells were stably transfected with a p53 responsive β-lactamase reporter and expanded in McCoy’s 5 A Medium with 10% fetal bovine serum (FBS), Blasticidin, and Penicillin/Streptomycin and then transferred to 1.5 ml freezing vials and stored under liquid nitrogen in growth media containing 5% DMSO. […] The cells were then seeded into a 384-well plate at a density of 8000 cells per well. […] The final working concentration of DMSO was 0.5%. β-lactamase activity was detected using the ToxBLAzer Dual Screen (Invitrogen), as per the manufacturer’s instructions. Measurements were made using the Envision multiplate reader (Perkin–Elmer). […] Measurements were taken a minimum of three times (biological replicates) and values are reported as geometric means of the replicates.
# [2] = Lactate dehydrogenase (LDH) release assay; settings: LDH: Cytotoxicity assay EC50
# Procedure, shortened: (§1)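 LDH release, fluorometric membrane-integrity read-out; HCT116 with stable p53-responsive β-lactamase reporter; 8000 cells/well; 0.5% DMSO final; geometric mean, n≥3 biological replicates.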
# HCT116 cells = experiment: Lactate dehydrogenase (LDH) release assay
# Procedure, shortened: as §1
# [3] = tested on: Jump-In T-REx CHO-K1 BLA cells; experiment: cells; settings: for EC50: read-out: TETCHO: Counterscreen EC50
# Procedure: This assay was based on Jump-In™ T-REx™ CHO-K1 BLA cells containing a stably integrated β-lactamase under the control of an inducible cytomegalovirus (CMV) promoter. Cells were maintained in Dulbecco’s […] Eagle Medium (DMEM) with 10% fetal bovine serum (FBS), Blasticidin, and Penicillin/Streptomycin and then transferred to 1.5 ml freezing vials and stored under liquid nitrogen in growth media containing 5% DMSO. […] Cells were seeded into a 384-well plate at a density of 4000 cells per well. Peptides were then dispensed to each well using a liquid handler, ECHO 555 and incubated for 16 h. The final working concentration of DMSO was 0.5%. β-lactamase activity was detected using the ToxBLAzer Dual Screen (Invitrogen), as per the manufacturer’s instructions. Measurements were carried out using the Envision multiplate reader (Perkin–Elmer). Counterscreen activity was defined as the amount of β-lactamase activity induced by tetracycline. Measurements were taken a minimum of three times (biological replicates) and values are reported as geometric means of the replicates.
SMILES,EC50 ([1]; 0% FBS 4Hr),EC50 [2],LDH: Cytotoxicity assay % Effect (HCT116 cells),TETCHO: Counterscreen % Effect ([3]; 0% FBS 4Hr),EC50 ([3]; 0% FBS 4Hr),EC50 ([1]; 0% FBS 16Hr),TETCHO: Counterscreen % Effect ([3]; 0% FBS 16Hr)
CC(=O)N[C@H](C(=O)N[C@@H](CO)C(=O)N[C@@H](Cc1ccccc1)C(=O)N[C@]1(C)CCCC=CCCC[C@](C)(C(=O)N[C@@H](CC(C)C)C(=O)N[C@@H](CC(C)C)C(=O)N[C@@H](CO)C(=O)N[C@@H](CCC(=O)O)C(=O)N[C@@H](CC(N)=O)C(=O)N[C@@H](Cc2ccccc2)C(N)=O)NC(=O)[C@H](Cc2c[nH]c3ccccc23)NC(=O)[C@H](Cc2ccc(O)cc2)NC(=O)[C@H](CCC(=O)O)NC1=O)[C@@H](C)O [MP-167] (Ac-TSF[R5]EYW[R5]LLSENF-NH2; staple 4-8),8.78 µM,26 µM,34.73%,22.82%,12.1 µM,,
CC(=O)N[C@@H](CCCCN)C(=O)N[C@@H](CCCCN)C(=O)N[C@H](C(=O)N[C@@H](CO)C(=O)N[C@@H](Cc1ccccc1)C(=O)N[C@]1(C)CCCCCCC=CCCC[C@@](C)(C(=O)N[C@@H](CCC(=O)O)C(N)=O)NC(=O)[C@H](CC(C)(C)C)NC(=O)[C@H](CC(C)C)NC(=O)[C@H](C)NC(=O)[C@H](Cc2c[nH]c3ccccc23)NC(=O)[C@H](Cc2ccc(O)cc2)NC(=O)[C@H](CCC(=O)O)NC1=O)[C@@H](C)O [MP-1159] (Ac-KKTSF[R8]EYWAL[tBuAla][S5]E-NH2; staple 6-13),5.08 µM,> 50 µM,-1.606%,44.44%,49.2 µM,,
CC(=O)N[C@H](C(=O)N[C@@H](CO)C(=O)N[C@@H](Cc1ccccc1)C(=O)NC(C)(C)C(=O)N[C@@H](CCC(=O)O)C(=O)N[C@@H](Cc1ccc(O)cc1)C(=O)N[C@@H](Cc1c[nH]c2ccccc12)C(=O)N[C@@H](C)C(=O)N[C@@H](CC(C)C)C(=O)N[C@@H](CC(C)C)C(=O)NC(C)(C)C(=O)N[C@@H](CCC(=O)O)C(N)=O)[C@@H](C)O [MP-1176],> 50 µM,> 50 µM,12.95%,-0.7808%,> 50 µM,,
CC(=O)N[C@H](C(=O)N[C@@H](CO)C(=O)N[C@@H](Cc1ccccc1)C(=O)N[C@]1(C)CCCCCCC=CCCC[C@@](C)(C(N)=O)NC(=O)[C@H](CC(C)C)NC(=O)[C@H](CC(C)C)NC(=O)[C@H](C)NC(=O)[C@H](Cc2c[nH]c3ccccc23)NC(=O)[C@H](Cc2ccc(O)cc2)NC(=O)[C@H](CCC(N)=O)NC1=O)[C@@H](C)O [MP-163] (Ac-TSF[R8]QYWALL[S5]-NH2; staple 4-11),11.5 µM,> 50 µM,6.049%,21.33%,> 50 µM,,
CC(=O)N[C@@H](CCCCN)C(=O)N[C@@H](CCCCN)C(=O)N[C@H](C(=O)N[C@@H](CO)C(=O)N[C@@H](Cc1ccccc1)C(=O)N[C@]1(C)CCCCCCC=CCCC[C@@](C)(C(N)=O)NC(=O)[C@H](CC(C)(C)C)NC(=O)[C@H](CC(C)C)NC(=O)[C@H](C)NC(=O)[C@H](Cc2c[nH]c3ccccc23)NC(=O)[C@H](Cc2ccc(O)cc2)NC(=O)[C@H](CCC(=O)O)NC1=O)[C@@H](C)O [MP-152] (Ac-KKTSF[R8]EYWAL[tBuAla][S5]-NH2; staple 6-13),19.3 µM,17.2 µM,49.97%,34.57%,36.5 µM,,
CC(=O)N[C@H](C(=O)N[C@@H](CO)C(=O)N[C@@H](Cc1ccccc1)C(=O)N[C@]1(C)CCCCCCC=CCCC[C@@](C)(C(=O)O)NC(=O)[C@H](CC(C)C)NC(=O)[C@H](CC(C)C)NC(=O)[C@H](C)NC(=O)[C@H](Cc2c[nH]c3ccccc23)NC(=O)[C@H](Cc2ccc(O)cc2)NC(=O)[C@H](CCC(=O)O)NC1=O)[C@@H](C)O [MP-162],36.2 µM,> 50.7 µM,20.08%,18.54%,46.9 µM,,
CC(=O)N[C@@H](CCCNC(=N)N)C(=O)N[C@@H](CCCNC(=N)N)C(=O)N[C@@H](CCCNC(=N)N)C(=O)NCCCCCC(=O)N[C@H](C(=O)N[C@@H](CO)C(=O)N[C@@H](Cc1ccccc1)C(=O)N[C@]1(C)CCCCCCC=CCCC[C@@](C)(C(=O)N[C@@H](CCC(=O)O)C(=O)N[C@@H](CC(N)=O)C(=O)N[C@@H](Cc2ccccc2)C(N)=O)NC(=O)[C@H](CC(C)C)NC(=O)[C@H](CC(C)C)NC(=O)[C@H](C)NC(=O)[C@H](Cc2c[nH]c3ccccc23)NC(=O)[C@H](Cc2ccc(O)cc2)NC(=O)[C@H](CCC(=O)O)NC1=O)[C@@H](C)O [MP-2009] (Ac-RRR[Ahx]TSF[R8]EYWALL[S5]ENF-NH2; staple 8-15),9.74 µM,> 50 µM,32.46%,68.36%,16.6 µM,,
CC(=O)N[C@@H](CCCCN)C(=O)N[C@@H](CCCCN)C(=O)NCCCCCC(=O)N[C@H](C(=O)N[C@@H](CO)C(=O)N[C@@H](Cc1ccccc1)C(=O)N[C@]1(C)CCCCCCC=CCCC[C@@](C)(C(=O)N[C@@H](CCC(=O)O)C(=O)N[C@@H](CC(N)=O)C(=O)N[C@@H](Cc2ccccc2)C(N)=O)NC(=O)[C@H](CC(C)C)NC(=O)[C@H](CC(C)C)NC(=O)[C@H](C)NC(=O)[C@H](Cc2c[nH]c3ccccc23)NC(=O)[C@H](Cc2ccc(O)cc2)NC(=O)[C@H](CCC(=O)O)NC1=O)[C@@H](C)O [MP-5363] (Ac-KK[Ahx]TSF[R8]EYWALL[S5]ENF-NH2; staple 7-14),3.42 µM,,,48.32%,> 50 µM,3.25 µM,4.17%
CC(=O)N[C@H](C(=O)N[C@@H](CO)C(=O)N[C@@H](CC(C)C)C(=O)N[C@]1(C)CCCCCCC=CCCC[C@@](C)(C(N)=O)NC(=O)[C@H](Cc2c[nH]c3ccccc23)NC(=O)[C@H](CC(C)C)NC(=O)[C@H](C)NC(=O)[C@H](Cc2ccccc2)NC(=O)[C@H](Cc2ccc(O)cc2)NC(=O)[C@H](CCC(=O)O)NC1=O)[C@@H](C)O [MP-2040] (Ac-TSL[R8]EYFALW[S5]-NH2; staple 4-11),7.46 µM,> 50 µM,24.89%,,,,
CC(=O)N[C@@H](CCCCN)C(=O)NCCCCCC(=O)N[C@H](C(=O)N[C@@H](CO)C(=O)N[C@@H](Cc1ccccc1)C(=O)N[C@]1(C)CCCCCCC=CCCC[C@@](C)(C(=O)N[C@@H](CCC(=O)O)C(=O)N[C@@H](CC(N)=O)C(=O)N[C@@H](Cc2ccccc2)C(N)=O)NC(=O)[C@H](CC(C)C)NC(=O)[C@H](CC(C)C)NC(=O)[C@H](C)NC(=O)[C@H](Cc2c[nH]c3ccccc23)NC(=O)[C@H](Cc2ccc(O)cc2)NC(=O)[C@H](CCC(=O)O)NC1=O)[C@@H](C)O [MP-5365],3.58 µM,,,4.41%,> 50 µM,2.2 µM,1.46%
CC(=O)N[C@H](C(=O)N[C@@H](CO)C(=O)N[C@@H](Cc1ccccc1)C(=O)N[C@]1(C)CCCCCCC=CCCC[C@@](C)(C(=O)N[C@@H](CCC(N)=O)C(=O)N[C@@H](CC(N)=O)C(=O)N[C@@H](Cc2ccccc2)C(N)=O)NC(=O)[C@H](CC(C)C)NC(=O)[C@H](CC(C)C)NC(=O)[C@H](C)NC(=O)[C@H](Cc2c[nH]c3ccccc23)NC(=O)[C@H](Cc2ccc(O)cc2)NC(=O)[C@H](CCC(=O)O)NC1=O)[C@@H](C)O [MP-2026],0.98 µM,> 50 µM,23.2%,,,,
CC(=O)N[C@@H](CCCCN)C(=O)N[C@@H](CC(C)C)C(=O)N[C@@H](C)C(=O)N[C@@H](CCCCN)C(=O)NCCCCCC(=O)N[C@H](C(=O)N[C@@H](CO)C(=O)N[C@@H](Cc1ccccc1)C(=O)N[C@]1(C)CCCCCCC=CCCC[C@@](C)(C(=O)N[C@@H](CCC(=O)O)C(=O)N[C@@H](CC(N)=O)C(=O)N[C@@H](Cc2ccccc2)C(N)=O)NC(=O)[C@H](CC(C)C)NC(=O)[C@H](CC(C)C)NC(=O)[C@H](C)NC(=O)[C@H](Cc2c[nH]c3ccccc23)NC(=O)[C@H](Cc2ccc(O)cc2)NC(=O)[C@H](CCC(=O)O)NC1=O)[C@@H](C)O [MP-2041] (Ac-KLAK[Ahx]TSF[R8]EYWALL[S5]ENF-NH2; staple 9-16),6.06 µM,> 50 µM,5.898%,,,,
CC(=O)N1CCC[C@H]1C(=O)N[C@@H](CCCNC(=N)N)C(=O)N[C@@H](Cc1ccccc1)C(=O)N[C@]1(C)CCCCCCC=CCCC[C@@](C)(C(N)=O)NC(=O)[C@H](CC(C)C)NC(=O)[C@H](CCCNC(=N)N)NC(=O)[C@H](Cc2ccc(O)cc2)NC(=O)[C@H](Cc2c[nH]c3ccccc23)NC(=O)[C@H](Cc2ccc(O)cc2)NC(=O)[C@H](CCC(=O)O)NC1=O [MP-2032] (Ac-PRF[R8]EYWYRL[S5]-NH2; staple 4-11),25.7 µM,> 50 µM,-1.239%,,,,
